Data: ChEMBL document CHEMBL1909046, “DrugMatrix in vitro pharmacology data”

What was measured:
[1] = biological target: T1, Receptor-type tyrosine-protein phosphatase C (Homo sapiens, UniProt P08575); parameters: species or system Escherichia coli;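 further: inhibition of CD45 enzyme activity measured using DiFMUP as substrate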
T1 sequence (P08575 whole entry): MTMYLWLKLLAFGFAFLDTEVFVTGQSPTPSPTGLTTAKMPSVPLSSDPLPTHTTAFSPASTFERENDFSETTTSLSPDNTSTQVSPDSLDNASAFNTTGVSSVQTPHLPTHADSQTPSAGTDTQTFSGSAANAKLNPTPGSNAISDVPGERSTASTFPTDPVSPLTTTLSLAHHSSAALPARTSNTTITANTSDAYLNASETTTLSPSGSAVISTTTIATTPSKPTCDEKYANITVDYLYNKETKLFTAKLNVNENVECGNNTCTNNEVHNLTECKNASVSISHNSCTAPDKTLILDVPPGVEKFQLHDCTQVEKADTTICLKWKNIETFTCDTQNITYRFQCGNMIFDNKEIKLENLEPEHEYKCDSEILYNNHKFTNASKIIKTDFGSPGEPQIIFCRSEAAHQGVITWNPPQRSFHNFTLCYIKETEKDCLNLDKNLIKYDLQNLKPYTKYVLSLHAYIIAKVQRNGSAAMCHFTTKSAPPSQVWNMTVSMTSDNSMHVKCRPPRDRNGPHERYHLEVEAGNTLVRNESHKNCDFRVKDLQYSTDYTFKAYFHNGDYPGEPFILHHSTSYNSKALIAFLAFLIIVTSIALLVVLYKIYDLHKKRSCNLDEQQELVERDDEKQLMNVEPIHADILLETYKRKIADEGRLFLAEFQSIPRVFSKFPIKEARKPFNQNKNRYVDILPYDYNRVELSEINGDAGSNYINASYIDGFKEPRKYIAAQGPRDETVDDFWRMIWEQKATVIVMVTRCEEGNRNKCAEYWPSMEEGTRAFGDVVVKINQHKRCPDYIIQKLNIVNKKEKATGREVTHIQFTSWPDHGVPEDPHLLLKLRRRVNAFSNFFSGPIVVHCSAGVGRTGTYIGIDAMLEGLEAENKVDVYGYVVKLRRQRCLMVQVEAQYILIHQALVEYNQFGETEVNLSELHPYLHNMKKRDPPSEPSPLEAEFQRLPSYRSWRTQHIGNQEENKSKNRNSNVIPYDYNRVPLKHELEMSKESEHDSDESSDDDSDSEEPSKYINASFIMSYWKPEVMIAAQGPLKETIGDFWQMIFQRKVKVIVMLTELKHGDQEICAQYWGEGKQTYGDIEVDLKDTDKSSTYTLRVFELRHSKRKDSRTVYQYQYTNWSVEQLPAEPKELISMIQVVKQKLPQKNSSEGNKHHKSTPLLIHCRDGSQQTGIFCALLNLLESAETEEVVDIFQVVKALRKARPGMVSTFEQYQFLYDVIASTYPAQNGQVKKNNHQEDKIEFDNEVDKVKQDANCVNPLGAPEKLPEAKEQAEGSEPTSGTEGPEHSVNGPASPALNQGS

Thromboxane-A synthase = biological target: T2, Thromboxane-A synthase (Homo sapiens, UniProt P24557); assay: biochemical; format: tissue-based, Platelet;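 further: enzyme inhibition assay with PGH2 supplied as substrate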
T2 sequence (P24557 whole entry): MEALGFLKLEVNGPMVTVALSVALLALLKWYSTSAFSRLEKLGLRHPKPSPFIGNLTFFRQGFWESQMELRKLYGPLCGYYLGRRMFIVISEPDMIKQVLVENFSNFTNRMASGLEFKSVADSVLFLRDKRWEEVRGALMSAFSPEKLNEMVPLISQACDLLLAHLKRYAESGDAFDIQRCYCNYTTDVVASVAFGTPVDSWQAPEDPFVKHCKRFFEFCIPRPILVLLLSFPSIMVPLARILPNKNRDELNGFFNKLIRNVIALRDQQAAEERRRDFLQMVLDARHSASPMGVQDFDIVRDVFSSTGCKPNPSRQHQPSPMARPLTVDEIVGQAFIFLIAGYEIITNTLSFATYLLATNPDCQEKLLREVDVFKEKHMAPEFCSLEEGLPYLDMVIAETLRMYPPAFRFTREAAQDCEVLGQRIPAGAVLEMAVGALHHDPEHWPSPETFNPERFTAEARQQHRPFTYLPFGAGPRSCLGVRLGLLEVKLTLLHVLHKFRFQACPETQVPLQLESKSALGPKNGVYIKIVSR

[2] = biological target: T3, Polyunsaturated fatty acid lipoxygenase ALOX15 (Oryctolagus cuniculus, UniProt P12530); assay: biochemical; format: tissue-based, Reticulocytes;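 further: inhibition of 15-lipoxygenase enzyme activity measured with linoleic acid as the substrate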
T3 sequence (P12530 whole entry): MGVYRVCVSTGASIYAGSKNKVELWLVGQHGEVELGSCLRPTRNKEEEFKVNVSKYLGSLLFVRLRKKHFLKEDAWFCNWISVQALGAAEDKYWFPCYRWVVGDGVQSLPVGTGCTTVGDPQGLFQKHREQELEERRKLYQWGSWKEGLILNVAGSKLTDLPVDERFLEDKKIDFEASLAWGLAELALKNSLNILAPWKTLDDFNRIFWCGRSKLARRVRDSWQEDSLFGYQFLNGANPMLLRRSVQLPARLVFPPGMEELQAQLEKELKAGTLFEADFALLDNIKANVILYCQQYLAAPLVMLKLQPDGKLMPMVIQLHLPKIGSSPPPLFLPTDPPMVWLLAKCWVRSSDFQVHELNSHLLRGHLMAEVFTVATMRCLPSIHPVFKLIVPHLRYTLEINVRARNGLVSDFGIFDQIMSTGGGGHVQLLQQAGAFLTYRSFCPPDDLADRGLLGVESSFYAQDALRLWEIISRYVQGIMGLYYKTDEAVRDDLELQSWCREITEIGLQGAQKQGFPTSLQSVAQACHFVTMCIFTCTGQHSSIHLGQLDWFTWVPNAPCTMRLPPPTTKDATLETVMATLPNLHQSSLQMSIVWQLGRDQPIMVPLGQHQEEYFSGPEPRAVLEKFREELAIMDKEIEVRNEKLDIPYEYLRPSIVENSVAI

Nitric oxide synthase 1 = Nitric oxide synthase 1 (Rattus norvegicus, UniProt P29476); format: tissue-based, Cerebellum
Sequence of Nitric oxide synthase 1 (P29476 whole entry): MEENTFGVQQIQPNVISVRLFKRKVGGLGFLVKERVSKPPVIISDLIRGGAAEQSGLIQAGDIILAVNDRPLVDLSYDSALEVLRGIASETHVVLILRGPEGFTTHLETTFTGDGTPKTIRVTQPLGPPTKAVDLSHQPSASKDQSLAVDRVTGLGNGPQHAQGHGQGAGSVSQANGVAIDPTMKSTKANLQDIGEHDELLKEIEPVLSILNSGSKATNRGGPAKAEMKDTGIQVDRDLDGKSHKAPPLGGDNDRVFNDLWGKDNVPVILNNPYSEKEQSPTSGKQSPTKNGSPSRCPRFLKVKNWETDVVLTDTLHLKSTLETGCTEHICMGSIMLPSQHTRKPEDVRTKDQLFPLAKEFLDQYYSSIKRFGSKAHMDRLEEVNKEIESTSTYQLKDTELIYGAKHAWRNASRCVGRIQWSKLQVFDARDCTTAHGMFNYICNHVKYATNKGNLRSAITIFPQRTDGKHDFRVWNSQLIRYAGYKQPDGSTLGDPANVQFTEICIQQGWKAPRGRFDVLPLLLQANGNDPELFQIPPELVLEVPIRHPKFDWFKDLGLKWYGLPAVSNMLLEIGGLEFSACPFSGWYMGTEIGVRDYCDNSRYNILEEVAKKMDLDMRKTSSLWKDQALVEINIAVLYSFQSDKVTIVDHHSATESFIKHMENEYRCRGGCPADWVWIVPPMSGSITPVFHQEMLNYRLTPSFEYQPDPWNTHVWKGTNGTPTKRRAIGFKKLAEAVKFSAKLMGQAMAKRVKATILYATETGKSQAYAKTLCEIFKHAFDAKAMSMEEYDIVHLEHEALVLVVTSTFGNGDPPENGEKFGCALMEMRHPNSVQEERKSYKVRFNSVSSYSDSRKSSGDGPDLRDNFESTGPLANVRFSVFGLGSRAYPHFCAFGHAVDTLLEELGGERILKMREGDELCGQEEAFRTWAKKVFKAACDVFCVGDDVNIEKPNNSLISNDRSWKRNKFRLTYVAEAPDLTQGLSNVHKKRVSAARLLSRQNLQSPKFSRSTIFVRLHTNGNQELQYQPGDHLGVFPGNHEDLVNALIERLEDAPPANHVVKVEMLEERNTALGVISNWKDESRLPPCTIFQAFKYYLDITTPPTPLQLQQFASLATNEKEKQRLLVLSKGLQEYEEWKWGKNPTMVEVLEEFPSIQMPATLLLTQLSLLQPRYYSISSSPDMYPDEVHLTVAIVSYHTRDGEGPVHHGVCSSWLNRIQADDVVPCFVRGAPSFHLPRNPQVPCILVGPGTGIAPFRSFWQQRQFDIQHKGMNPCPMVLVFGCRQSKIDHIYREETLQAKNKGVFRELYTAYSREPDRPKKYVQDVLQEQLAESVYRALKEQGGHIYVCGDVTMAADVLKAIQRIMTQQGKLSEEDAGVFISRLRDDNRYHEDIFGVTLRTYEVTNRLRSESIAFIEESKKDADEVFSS
Further: in other assays of this panel Not Active means under 50% inhibition at 10 µM.

Structure (SMILES)	IC50 [1]	IC50 (Thromboxane-A synthase; read-out: IC50) [µM]	IC50 ([2]; reticulocytes)	IC50 (Nitric oxide synthase 1)	IC50 (Thromboxane-A synthase; platelet)	IC50 ([2]; read-out: IC50) [µM]	Ki [1]	Ki (Thromboxane-A synthase; platelet)	Ki ([2]; reticulocytes)	Ki (Nitric oxide synthase 1)
CC(C)CN(C[C@@H](O)[C@H](Cc1ccccc1)NC(=O)O[C@H]1CCOC1)S(=O)(=O)c1ccc(N)cc1	Not Active	6.73	Not Active	Not Active	–	–	–	–	–	–
c1ccc(Nc2ccc(Nc3ccccc3)cc2)cc1	Not Active	–	–	Not Active	Not Active	2.88	–	–	–	–
COc1cc2c3cc1Oc1cc(ccc1O)C[C@@H]1c4c(cc(OC)c(O)c4Oc4ccc(cc4)C[C@@H]3N(C)CC2)CC[N+]1(C)C.[Cl-]	Not Active	–	Not Active	Not Active	Not Active	–	–	–	–	–
NC(=O)N1c2ccccc2CCc2ccccc21	Not Active	–	Not Active	Not Active	Not Active	–	–	–	–	–
O=C1CC[C@@H](N2C(=O)c3ccccc3C2=O)C(=O)N1	Not Active	–	Not Active	Not Active	Not Active	–	–	–	–	–
Cc1onc(O)c1CC(N)C(=O)O (racemic) [(R,S)-AMPA]	Not Active	–	Not Active	Not Active	Not Active	–	–	–	–	–
Cc1ccc2cc3c(ccc4ccccc43)c3c2c1CC3 [3-METHYLCHOLANTHRENE]	Not Active	–	Not Active	Not Active	Not Active	–	–	–	–	–
CC[C@@]1(O)C[C@H](O[C@H]2C[C@H](N(C)C)[C@H](O[C@H]3C[C@H](O)[C@H](O[C@H]4CCC(=O)[C@H](C)O4)[C@H](C)O3)[C@H](C)O2)c2c(cc3c(c2O)C(=O)c2c(O)cccc2C3=O)[C@H]1C(=O)OC [ACLARUBICIN]	Not Active	–	Not Active	Not Active	Not Active	–	–	–	–	–
Nc1nc2c(ncn2COCCO)c(=O)[nH]1 [ACYCLOVIR]	Not Active	–	Not Active	Not Active	Not Active	–	–	–	–	–
Cc1c(C)c2c(c(C)c1O)CC[C@@](C)(CCC[C@H](C)CCC[C@H](C)CCCC(C)C)O2 [ALPHA-TOCOPHEROL]	Not Active	–	Not Active	Not Active	Not Active	–	–	–	–	–
CN(C)c1nc(N(C)C)nc(N(C)C)n1 [ALTRETAMINE]	Not Active	–	Not Active	Not Active	Not Active	–	–	–	–	–
Nc1c(Br)cc(Br)cc1CN[C@H]1CC[C@H](O)CC1 [AMBROXOL]	Not Active	–	Not Active	Not Active	Not Active	–	–	–	–	–
NCCCCCC(=O)O [AMINOCAPROIC ACID]	Not Active	–	Not Active	Not Active	Not Active	–	–	–	–	–
CCC1(c2ccc(N)cc2)CCC(=O)NC1=O (stereo unspecified) [AMINOGLUTETHIMIDE]	Not Active	–	Not Active	Not Active	Not Active	–	–	–	–	–
Cc1ccc(/N=C/N(C)/C=N/c2ccc(C)cc2C)c(C)c1 [AMITRAZ]	Not Active	–	Not Active	Not Active	Not Active	–	–	–	–	–
CCOC(=O)C1=C(COCCN)NC(C)=C(C(=O)OC)C1c1ccccc1Cl (stereo unspecified) [AMLODIPINE]	Not Active	–	Not Active	Not Active	Not Active	–	–	–	–	–
COc1ccc(C[C@H]2NC[C@H](O)[C@H]2OC(C)=O)cc1 [ANISOMYCIN]	Not Active	–	Not Active	Not Active	Not Active	–	Not Active	Not Active	Not Active	Not Active

Structure (SMILES)	IC50 [1]	IC50 (Thromboxane-A synthase; read-out: IC50) [µM]	IC50 ([2]; reticulocytes)	IC50 (Nitric oxide synthase 1)	IC50 (Thromboxane-A synthase; platelet)	IC50 ([2]; read-out: IC50) [µM]	Ki [1]	Ki (Thromboxane-A synthase; platelet)	Ki ([2]; reticulocytes)	Ki (Nitric oxide synthase 1)
Nc1ncn([C@@H]2O[C@H](CO)[C@@H](O)[C@H]2O)c(=O)n1 [AZACITIDINE]	Not Active	–	Not Active	Not Active	Not Active	–	–	–	–	–
CN(C)C(=O)Oc1cc(OC(=O)N(C)C)cc(C(O)CNC(C)(C)C)c1 (stereo unspecified) [BAMBUTEROL]	Not Active	–	Not Active	Not Active	Not Active	–	–	–	–	–
c1ccc2c(c1)c1cccc3ccc4cccc2c4c31 [BENZO[E]PYRENE]	Not Active	–	Not Active	Not Active	Not Active	–	–	–	–	–
CNCCc1ccccn1 [BETAHISTINE]	Not Active	–	Not Active	Not Active	Not Active	–	–	–	–	–
CC(C)C(Br)C(=O)NC(N)=O (stereo unspecified) [BROMISOVALUM]	Not Active	–	Not Active	Not Active	Not Active	–	–	–	–	–
CCCC1O[C@@H]2C[C@H]3[C@@H]4CCC5=CC(=O)C=C[C@]5(C)[C@H]4[C@@H](O)C[C@]3(C)[C@]2(C(=O)CO)O1 (stereo partly specified) [BUDESONIDE]	Not Active	–	Not Active	Not Active	Not Active	–	–	–	–	–
CC(NC(C)(C)C)C(=O)c1cccc(Cl)c1 (stereo unspecified) [BUPROPION]	Not Active	–	Not Active	Not Active	Not Active	–	–	–	–	–
CN(Cc1ccc(C(C)(C)C)cc1)Cc1cccc2ccccc12 [BUTENAFINE]	Not Active	–	Not Active	Not Active	Not Active	–	–	–	–	–
C[C@H](CS)C(=O)N1CCC[C@H]1C(=O)O [CAPTOPRIL]	Not Active	–	Not Active	Not Active	Not Active	–	–	–	–	–
Cc1ccc(-c2cc(C(F)(F)F)nn2-c2ccc(S(N)(=O)=O)cc2)cc1 [CELECOXIB]	Not Active	–	Not Active	Not Active	Not Active	–	–	–	–	–
O=C(O)CCCc1ccc(N(CCCl)CCCl)cc1 [CHLORAMBUCIL]	Not Active	–	Not Active	Not Active	Not Active	–	–	–	–	–
CN(C)CCCN1c2ccccc2Sc2ccc(Cl)cc21 [CHLORPROMAZINE]	Not Active	–	–	Not Active	Not Active	16	–	–	–	–
C[C@H](CCC(=O)O)[C@H]1CC[C@H]2[C@@H]3[C@H](O)C[C@@H]4C[C@H](O)CC[C@]4(C)[C@H]3C[C@H](O)[C@]12C [CHOLIC ACID]	Not Active	–	Not Active	Not Active	Not Active	–	–	–	–	–
Cc1cc(C2CCCCC2)n(O)c(=O)c1 [CICLOPIROX]	Not Active	–	Not Active	Not Active	Not Active	–	–	–	–	–
CC1=C2C(=CO[C@H](C)[C@H]2C)C(O)=C(C(=O)O)C1=O [CITRININ]	Not Active	–	Not Active	Not Active	Not Active	–	–	–	–	–
CC(C)(C)NCC(O)c1cc(Cl)c(N)c(Cl)c1 (stereo unspecified) [CLENBUTEROL]	Not Active	–	Not Active	Not Active	Not Active	–	–	–	–	–
